Earlier results, collected in PMC11600176 (JACS Au, 2024).

Conditions: aerated acetonitrile

Question: With `CCCN1C(=O)c2cccc3c(N)ccc(c23)C1=O` [N-propyl-4-amino-1,8-naphthalimide] as the compound, how does the “Φf fluorescence quantum yield of the standard” value read?
Answer: 0.48
